Experimental findings from patent US9227971B2, “Pyrazolo[1,5-a]pyrimidine compounds as mTOR inhibitors” (Merck Sharp & Dohme Corp., priority 2010, dated 2016) are described below.

In experiment [1] the test system is phosphorylated AKT Ser473 (pAKT S473), mTORC2 activity, PC3 cells. Briefly: mTOR target engagement assay, immunofluorescent cell-based, pAKT S473 readout (mTORC2 activity). The essentials:
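After blocking, cells were stained overnight at 4 °C with anti-pAKT S473 antibody, then a fluorescent secondary; inhibition was read as reduced fluorescence intensity.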

The subject of experiment [2] is phosphorylated 4E-BP1 Thr37/46 (p4E-BP1 Thr37/46), mTORC1 activity, PC3 cells. The experiment in a line: mTOR target engagement assay, immunofluorescent cell-based, p4E-BP1 Thr37/46 readout (mTORC1 activity). The settings on record: read-out: p4E-BP1 Thr37/46 IC50. The method in brief: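 Seed PC3 cells overnight; treat with compound dilutions for ninety minutes at 37° C; fix with glyoxal and block; stain with anti-p4E-BP1 Thr37/46 overnight at 4° C, then fluorescent secondary; read fluorescence and fit IC50 against DMSO-only controls.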

[3] abbreviates: Homo sapiens, PC-3, PC3 cells, compound treatment ninety minutes at 37° C.
Where [4] appears, read: Homo sapiens, PC-3, Table 6-1, PC3 cells.
[5] abbreviates: Homo sapiens, PC-3, Table 3-1, PC3 cells.

Structures are written as SMILES. Where two headings read alike, the source gives them in different places.

For `Nc1cc([C@@H]2C[C@H]3CC[C@@H](C2)N3C(=O)c2nnc[nH]2)nc2c(-c3ccc4[nH]ncc4c3)cnn12` [Compound 2.12, ((1R,3s,5S)-3-(7-amino-3-(1H-indazol-5-yl)pyrazolo[1,5-a]pyrimidin-5-yl)-8-azabicyclo[3.2.1]octan-8-yl)(1H-1,2,4-triazol-5-yl)methanone], the IC50 in experiment [1] (setting [3]) and in experiment [2] (setting [3]) was over 10000 nM each time.

In the case of `CC(=O)c1c([C@@H]2C[C@H]3CC[C@@H](C2)N3C(=O)CO)nc2c(-c3ccc(-c4ccc(F)cc4F)nc3)cnn2c1N` [Compound 1.1.164, 1-((1R,3s,5S)-3-(6-acetyl-7-amino-3-(6-(2,4-difluorophenyl)pyridin-3-yl)pyrazolo[1,5-a]pyrimidin-5-yl)-8-azabicyclo[3.2.1]octan-8-yl)-2-hydroxyethanone], the IC50 in experiment [1] (setting [3]) was in the range of 1 to 100 nM; in experiment [2] (setting [3]), 100 to 1000 nM.

As for `CC(=O)c1c([C@@H]2C[C@H]3CC[C@@H](C2)N3C(=O)c2nnc[nH]2)nc2c(-c3ccc(-c4cn(C)cn4)nc3)cnn2c1N` [Compound 1.1.108, 1-(5-((1R,3s,5S)-8-(4H-1,2,4-triazole-3-carbonyl)-8-azabicyclo[3.2.1]octan-3-yl)-7-amino-3-(6-(1-methyl-1H-imidazol-4-yl)pyridin-3-yl)pyrazolo[1,5-a]pyrimidin-6-yl)ethanone], the IC50 in experiment [1] (setting [3]) and in experiment [2] (setting [3]) was 1000 to 10000 nM in each case.

As to `COc1ccc2ncc(-c3cnn4c(N)c(C(C)=O)c([C@@H]5C[C@H]6CC[C@@H](C5)N6C(=O)c5nnc[nH]5)nc34)cc2c1` [Compound 1.1.125, 1-(5-((1R,3s,5S)-8-(4H-1,2,4-triazole-3-carbonyl)-8-azabicyclo[3.2.1]octan-3-yl)-7-amino-3-(6-methoxyquinolin-3-yl)pyrazolo[1,5-a]pyrimidin-6-yl)ethanone], the values for the IC50 in experiment [1] (setting [3]) and in experiment [2] (setting [3]) were 1000 to 10000 nM and 100 to 1000 nM, respectively.

Take `CCOc1ccc(-c2ccc(-c3cnn4c(N)c(C(C)=O)c([C@@H]5C[C@H]6CC[C@@H](C5)N6C(=O)c5nnc[nH]5)nc34)cn2)cc1` [Compound 1.1.73, 1-(5-((1R,3s,5S)-8-(4H-1,2,4-triazole-3-carbonyl)-8-azabicyclo[3.2.1]octan-3-yl)-7-amino-3-(6-(4-ethoxyphenyl)pyridin-3-yl)pyrazolo[1,5-a]pyrimidin-6-yl)ethanone]: the IC50 in experiment [1] (setting [3]) and in experiment [2] (setting [3]) was 1 to 100 nM each time.

In the case of `Nc1c(C2(O)CC2)c([C@@H]2C[C@H]3CC[C@@H](C2)N3C(=O)c2nc[nH]n2)nc2c(-c3ccc(-c4ccccc4)nc3)cnn12` [Compound 8.39], the IC50 lay within 1000 to 10000 nM in experiment [1] (Homo sapiens, PC-3, PC3 cells) and 1000 to 10000 nM in experiment [2] (Homo sapiens, PC-3, PC3 cells).

On to `COc1ccc(-c2ccc(-c3cnn4c(N)c(Br)c([C@@H]5C[C@H]6CC[C@@H](C5)N6C(=O)[C@@H](C)O)nc34)cn2)cc1CO` [Compound 2.3, (R)-1-((1R,3S,5S)-3-(7-amino-6-bromo-3-(6-(3-(hydroxymethyl)-4-methoxyphenyl)pyridin-3-yl)pyrazolo[1,5-a]pyrimidin-5-yl)-8-azabicyclo[3.2.1]octan-8-yl)-2-hydroxypropan-1-one], for which the IC50 in experiment [1] (setting [3]) and in experiment [2] (setting [3]) was 1 to 100 nM each time.

As for `CCC(O)(CC)c1ccc(-c2cnn3c(N)c(C(C)=O)c([C@@H]4C[C@H]5CC[C@@H](C4)N5C(=O)c4nnc[nH]4)nc23)cn1` [Compound 1.1.85, 1-(5-((1R,3s,5S)-8-(4H-1,2,4-triazole-3-carbonyl)-8-azabicyclo[3.2.1]octan-3-yl)-7-amino-3-(6-(3-hydroxypentan-3-yl)pyridin-3-yl)pyrazolo[1,5-a]pyrimidin-6-yl)ethanone], the IC50 in experiment [1] (setting [3]) and in experiment [2] (setting [3]) was 1000 to 10000 nM throughout.

Regarding `CC(=O)c1c([C@@H]2C[C@H]3CC[C@@H](C2)N3C(C)=O)nc2c(-c3ccc(-c4ncc[nH]4)nc3)cnn2c1N` [Compound 6.18, 1-(3-(6-(1H-imidazol-2-yl)pyridin-3-yl)-5-((1R,3s,5S)-8-acetyl-8-azabicyclo[3.2.1]octan-3-yl)-7-aminopyrazolo[1,5-a]pyrimidin-6-yl)ethanone], the IC50 in experiment [1] (setting [4]) and in experiment [2] (setting [4]) was 1 to 100 nM each time.

Regarding `Nc1c(C2CC2)c(C2CC3CCC(C2)N3C(=O)c2nnc(N3CCNCC3)[nH]2)nc2c(-c3ccc(-c4ccccc4)nc3)cnn12` [Compound 8.98, ((1R,3s,5S)-3-(7-amino-6-cyclopropyl-3-(6-phenylpyridin-3-yl)pyrazolo[1,5-a]pyrimidin-5-yl)-8-azabicyclo[3.2.1]octan-8-yl)(5-(piperazin-1-yl)-4H-1,2,4-triazol-3-yl)methanone], the IC50 in experiment [1] (Homo sapiens, PC-3, PC3 cells) lay within 1000 to 10000 nM; in experiment [2] (Homo sapiens, PC-3, PC3 cells) it was 1000 to 10000 nM.

With `CC(=O)c1c([C@@H]2C[C@H]3CC[C@@H](C2)N3C(=O)c2nnc[nH]2)nc2c(-c3cnc(-c4ccn(C)n4)c(F)c3)cnn2c1N` [Compound 1.1.112, 1-(5-((1R,3s,5S)-8-(4H-1,2,4-triazole-3-carbonyl)-8-azabicyclo[3.2.1]octan-3-yl)-7-amino-3-(5-fluoro-6-(1-methyl-1H-pyrazol-3-yl)pyridin-3-yl)pyrazolo[1,5-a]pyrimidin-6-yl)ethanone], the IC50 in experiment [1] (setting [3]) and in experiment [2] (setting [3]) was 1000 to 10000 nM each time.

In the case of `CS(=O)(=O)c1c([C@@H]2C[C@H]3CC[C@@H](C2)N3C(=O)c2ncccc2O)nc2c(-c3ccc(-c4ccccc4)nc3)cnn2c1N` [Compound 3.13], the IC50 in experiment [1] (setting [5]) and in experiment [2] (setting [5]) was 100 to 1000 nM throughout.

Turning to `CS(=O)(=O)c1c([C@@H]2C[C@H]3CC[C@@H](C2)N3C(=O)c2nnc[nH]2)nc2c(-c3ccc(-c4ccncc4)nc3)cnn2c1N` [Compound 3.64, ((1R,3s,5S)-3-(3-(2,4′-bipyridin-5-yl)-7-amino-6-(methylsulfonyl)pyrazolo[1,5-a]pyrimidin-5-yl)-8-azabicyclo[3.2.1]octan-8-yl)(4H-1,2,4-triazol-3-yl)methanone], the IC50 lay within 1000 to 10000 nM in experiment [1] (Table 3-1, PC3 cells) and 1000 to 10000 nM in experiment [2] (Table 3-1, PC3 cells).

Regarding `CS(=O)(=O)c1c([C@@H]2C[C@H]3CC[C@@H](C2)N3C(=O)CO)nc2c(-c3ccc(CO)c(F)c3)cnn2c1N` [Compound 8.43, 1-((1R,3s,5S)-3-(7-amino-3-(3-fluoro-4-(hydroxymethyl)phenyl)-6-(methylsulfonyl)pyrazolo[1,5-a]pyrimidin-5-yl)-8-azabicyclo[3.2.1]octan-8-yl)-2-hydroxyethanone], the IC50 fell in the range of 100 to 1000 nM in experiment [1] (Homo sapiens, PC-3, PC3 cells) and 100 to 1000 nM in experiment [2] (Homo sapiens, PC-3, PC3 cells).

Consider `CC(=O)c1c([C@@H]2C[C@H]3CC[C@@H](C2)N3C(=O)CO)nc2c(-c3cnc(C(C)(C)O)c(C)c3)cnn2c1N` [Compound 7.23, 1-((1R,3s,5S)-3-(6-acetyl-7-amino-3-(6-(2-hydroxypropan-2-yl)-5-methylpyridin-3-yl)pyrazolo[1,5-a]pyrimidin-5-yl)-8-azabicyclo[3.2.1]octan-8-yl)-2-hydroxyethanone], for which the IC50 in experiment [1] (setting [3]) and in experiment [2] (setting [3]) was 100 to 1000 nM throughout.

For `CCC(=O)NNc1ccc(-c2cnn3c(N)c(C(C)=O)c([C@@H]4C[C@H]5CC[C@@H](C4)N5C(=O)CO)nc23)cn1` [Compound 8.52, N′-(5-(6-acetyl-7-amino-5-((1R,3s,5S)-8-(2-hydroxyacetyl)-8-azabicyclo[3.2.1]octan-3-yl)pyrazolo[1,5-a]pyrimidin-3-yl)pyridin-2-yl)propionohydrazide], the IC50 in experiment [1] (Homo sapiens, PC-3, PC3 cells) is 1000 to 10000 nM; in experiment [2] (Homo sapiens, PC-3, PC3 cells), over 10000 nM.

Consider `CC(=O)c1c([C@@H]2C[C@H]3CC[C@@H](C2)N3C(=O)c2nnc[nH]2)nc2c(-c3cnn(CCO)c3)cnn2c1N` [Compound 1.1.155, 1-(5-((1R,3s,5S)-8-(4H-1,2,4-triazole-3-carbonyl)-8-azabicyclo[3.2.1]octan-3-yl)-7-amino-3-(1-(2-hydroxyethyl)-1H-pyrazol-4-yl)pyrazolo[1,5-a]pyrimidin-6-yl)ethanone], for which the IC50 in experiment [1] (setting [3]) and in experiment [2] (setting [3]) was 1000 to 10000 nM in each case.

For `CC(=O)c1c([C@@H]2C[C@H]3CC[C@@H](C2)N3C(=O)c2cc(N)n[nH]2)nc2c(-c3ccc(-c4ccc(F)cc4F)nc3)cnn2c1N` [Compound 1.1.166, 1-(7-amino-5-((1R,3s,5S)-8-(3-amino-1H-pyrazole-5-carbonyl)-8-azabicyclo[3.2.1]octan-3-yl)-3-(6-(2,4-difluorophenyl)pyridin-3-yl)pyrazolo[1,5-a]pyrimidin-6-yl)ethanone], the IC50 in experiment [1] (setting [3]) and in experiment [2] (setting [3]) was 1 to 100 nM each time.

Take `CC(=O)c1c([C@@H]2C[C@H]3CC[C@@H](C2)N3C(=O)c2ccn[nH]2)nc2c(-c3ccc(-n4cc(C)cn4)nc3)cnn2c1N` [Compound 1.1.131, 1-(5-((1R,3s,5S)-8-(1H-pyrazole-5-carbonyl)-8-azabicyclo[3.2.1]octan-3-yl)-7-amino-3-(6-(4-methyl-1H-pyrazol-1-yl)pyridin-3-yl)pyrazolo[1,5-a]pyrimidin-6-yl)ethanone]: the IC50 in experiment [1] (setting [3]) and in experiment [2] (setting [3]) was 100 to 1000 nM each time.

Consider `COc1ccc(-c2ccc(-c3cnn4c(N)c(S(C)(=O)=O)c([C@H]5CC6CC[C@H](C5)N6C(=O)c5cn[nH]n5)nc34)cn2)cc1F` [Compound 3.169, ((1R,3a,5S)-3-(7-amino-3-(6-(3-fluoro-4-methoxyphenyl)pyridin-3-yl)-6-(methylsulfonyl)pyrazolo[1,5-a]pyrimidin-5-yl)-8-azabicyclo[3.2.1]octan-8-yl)(2H-1,2,3-triazol-4-yl)methanone], for which the IC50 in experiment [1] (setting [5]) was 1 to 100 nM; in experiment [2] (setting [5]), 100 to 1000 nM.
